Patent US9012169B2, “Metabolic method to identify compounds having flavor or fragrance” (Givaudan S.A., priority 2004, dated 2015)

Assays:
[1] = molecular target: CYP2E1 and Epoxide Hydrolase (EH) (Homo sapiens, UniProt P05181)
Experimental: Styrene is incubated in a first incubation step with microsomal membranes of baculovirus-infected Sf9 insect cell membranes that contain CYP2E1 and POR. In a second incubation step, this sample is incubated with EH.
In the first step, 3 μl styrene (77 mM in acetonitrile), 425 μl potassium phosphate buffer (50 mM, pH 7.4), 16.5 μl MgCl2, 50 pmole of CYP2E1 containing cytochrome P450 reductase (purchased from BD Bioscience, Gentest, US) and water are mixed to give a total volume of 470 μl. 30 μl NADPH (50 mM in water) are added to the sample, to the control 30 μl water are added. Sample and control are incubated at 37° C. for 1 hour.
In the second step, 50 μl of 1 M Tris-Cl, pH 9 followed by 0.4 mg/ml protein (human microsomal epoxide hydrolase microsomes, 25,000 pmole styrene oxide hydrolase activity/(min×mg protein) BD Bioscience, Gentest, US) is added and incubation is continued for 30 min.
After the second step, 100 μl acetonitrile is added to sample and control and they are placed on ice. This stops the enzymatic reaction. Compounds in the samples are extracted with MTBE.
Metabolites, i.e. additional compounds present in the sample but not in the control, are identified by GC-MS.

[2] = molecular target: T1, rat olfactory receptor 17 (Rattus norvegicus, UniProt P23270); assay: Receptor screen using HEK293 cells expressing Galpha-15,16 and the rat olfactory receptor 17, intracellular calcium; format: cell-based; details: octanol incubated with ADH (octanal present) versus control without enzyme
T1 construct: expressed in transfected cells; host or cells: HEK293
T1 sequence (P23270 1-327): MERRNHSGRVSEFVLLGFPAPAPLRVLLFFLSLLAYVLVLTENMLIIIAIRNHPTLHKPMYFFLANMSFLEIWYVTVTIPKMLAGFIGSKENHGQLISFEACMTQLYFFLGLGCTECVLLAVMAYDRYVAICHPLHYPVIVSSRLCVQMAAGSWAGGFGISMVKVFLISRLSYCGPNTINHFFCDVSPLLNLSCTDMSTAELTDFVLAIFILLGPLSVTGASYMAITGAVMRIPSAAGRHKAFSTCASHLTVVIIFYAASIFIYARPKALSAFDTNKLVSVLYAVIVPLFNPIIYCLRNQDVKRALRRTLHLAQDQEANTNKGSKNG
Experimental: Octanol is incubated with alcohol dehydrogenase as described in example 10, controls without alcohol dehydrogenase are incubated accordingly. In the presence of the enzyme, the metabolite of octanol, which is octanal, is present as shown in example 10.
The rat olfactory receptor 17 together with the Galpha15,16 are expressed by co-transfection in HEK293 cells as described by Krautwurst et al. (1998), Cell 95:917-926. Transfected HEK293 cells are plated on coverslips, 24-well tissue culture plates, and microtiter plates. These coverslips and plates are incubated with Fura-2 as described in example 8. The microtiter plates are incubated as described by Krautwurst et al. (1998).
The supernatant is transferred to an empty container and diluted with 2×HEPES (4 mM Ca^2+). This dilution is used as a sample in the receptor screen as described in Example 8, using HEK293 cells that express Galpha-15,16 and the rat olfactory receptor 17.
Fluorescence recording is performed to monitor any increase in intracellular, cytoplasmic calcium levels.

[3] = molecular target: T2, human recombinant carboxyl esterase (CE) (Homo sapiens, UniProt P23141); assay: Incubation with CE in the absence of the standard substrate, metabolites by GC and GC-MS; format: in vitro ADME
T2 construct: In order to clone the full-length gene encoding CE; made in house; host or cells: Sf9 insect cells, baculovirus (pBlueBac4.5), used as microsomes
T2 sequence (P23141 18-566 isoform P23141-3 limits assumed): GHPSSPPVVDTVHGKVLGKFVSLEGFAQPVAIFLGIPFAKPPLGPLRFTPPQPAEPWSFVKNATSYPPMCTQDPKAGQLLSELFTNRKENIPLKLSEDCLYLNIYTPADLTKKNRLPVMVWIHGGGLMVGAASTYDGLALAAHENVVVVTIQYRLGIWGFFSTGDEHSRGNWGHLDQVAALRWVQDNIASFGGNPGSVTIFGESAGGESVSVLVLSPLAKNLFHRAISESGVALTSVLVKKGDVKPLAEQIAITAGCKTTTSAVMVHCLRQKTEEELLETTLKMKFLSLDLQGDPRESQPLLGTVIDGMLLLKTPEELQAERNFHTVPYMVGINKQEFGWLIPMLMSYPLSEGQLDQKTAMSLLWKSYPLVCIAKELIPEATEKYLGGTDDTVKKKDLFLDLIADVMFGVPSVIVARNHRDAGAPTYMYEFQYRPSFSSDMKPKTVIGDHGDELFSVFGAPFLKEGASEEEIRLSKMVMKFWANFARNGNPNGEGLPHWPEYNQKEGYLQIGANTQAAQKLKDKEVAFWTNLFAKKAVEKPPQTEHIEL
Experimental: Incubation with CE is performed in the absence of the standard substrate using 10 mU of CE in a total volume of 0.5 ml with the substrate at 0.25 mM and 50 mM potassium phosphate as the assay buffer.
GC and GC-MS analysis show the formation of an additional peak which is identified as menthol, which is a metabolite of menthyl-lactate.

hTRPM8 = hTRPM8 (Homo sapiens, UniProt Q7Z2W7); assay: Receptor screen using hTRPM8-expressing CHO-K1/FRT cells, Fura-2 intracellular calcium; details: for Receptor ligand character at hTRPM8: conclusion from the receptor screen after the metabolic reaction with CE; for Intracellular calcium levels in hTRPM8-expressing CHO-K1 cells: menthyl-lactate incubated with CE (menthol formed) versus control with substrate but without CE
Experimental: The stable CHO-K1/FRT cell clones that express hTRPM8 are used in a receptor screen to identify ligands of said receptor. This is performed analogous to the method described by Peier et al. (Cell (2002) 108:705-715) for the mouse TRPM8 cDNA. Glass coverslips, 24-well and 96-well tissue culture plates are used for cell plating. Cells are loaded with the calcium-sensitive fluorescent dye Fura-2 acetoxymethyl ester (Fura-2AM). As a test compound, menthol or another known ligand is diluted in a suitable buffer compatible with the CHO-K1/FRT cells.
Menthyl-lactate, a substrate of CE, is incubated with CE. Controls contain menthyl-lactate but not CE. The incubation is performed as described in Examples 7B, subject to the following modifications: after 30 min incubation time at 25° C., the samples are chilled on ice for 10 min and centrifuged. Supernatants are transferred to empty wells and diluted with 1 volume 2×HEPES (4 mM Ca^2+). The dilution is used as a test sample in a receptor screen as described in Example 8.

[4] = molecular target: T2, human recombinant carboxyl esterase (CE); assay: Incubation with human recombinant carboxyl esterase (CE) and standard substrate p-nitrophenylacetate, absorbance at 405 nm; format: biochemical; details: 0.1 mM p-nitrophenylacetate, test compound 0-1 mM, 25° C., pH 7.2
Experimental: The incubation of a test compound (potential substrate or modulator of CE) and CE is performed in the presence of a standard substrate, for example p-nitrophenylacetate. The hydrolysis product of p-nitrophenylacetate is p-nitrophenol which can be detected by measuring the absorbance at 405 nm. […] The incubation mixture contains CE microsomes containing CE enzyme corresponding to 4 mU of CE in a total volume of 0.2 ml (1 U hydrolyzes 1.0 μmole of ethylbutyrate to butyrate and ethanol per min at pH 8.0, 25° C.), 0.1 mM p-nitrophenylacetate, and the test compound in 50 mM potassium phosphate buffer (pH 7.2). The test compound is employed at different concentrations, for example 0, 0.05, 0.1, 0.25, 0.5, 1 mM, to allow detection of a dose-dependent effect. Samples that contain no test compound serve as a negative control. The samples are incubated at 25° C. and the increase in absorbance at 405 nm is measured every 5 minutes for 30 minutes.

[5] = molecular target: T3, human microsomal epoxide hydrolase (EH) (Homo sapiens, UniProt P07099); assay: Incubation of styrene oxide with human microsomal epoxide hydrolase (EH), metabolite by GC-MS; format: in vitro ADME; details: 0.5 mM styrene oxide, 0.2 mg/ml EH, pH 9, 30 min at 37° C.
T3 construct: purchased BD Bioscience, Gentest, US
T3 sequence (P07099 1-455): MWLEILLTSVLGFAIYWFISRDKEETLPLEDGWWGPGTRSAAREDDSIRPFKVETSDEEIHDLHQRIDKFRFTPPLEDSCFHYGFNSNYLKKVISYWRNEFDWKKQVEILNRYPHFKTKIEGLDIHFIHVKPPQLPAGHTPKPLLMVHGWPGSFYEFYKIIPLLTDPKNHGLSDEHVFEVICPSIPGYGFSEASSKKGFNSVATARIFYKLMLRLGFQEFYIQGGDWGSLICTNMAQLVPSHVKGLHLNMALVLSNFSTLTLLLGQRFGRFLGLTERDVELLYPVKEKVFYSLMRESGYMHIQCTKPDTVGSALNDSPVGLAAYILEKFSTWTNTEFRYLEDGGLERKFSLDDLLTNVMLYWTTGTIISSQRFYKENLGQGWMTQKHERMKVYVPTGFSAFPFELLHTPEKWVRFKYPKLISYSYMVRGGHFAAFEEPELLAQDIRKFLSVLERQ

human CYP2A13 [6] = molecular target: T4, human CYP2A13 (Homo sapiens, UniProt Q16696); assay: Incubation of a test compound with human CYP2A13 and identification of metabolites by GC and GC-MS; details: from decrease of umbelliferone and metabolite found by GC-MS
T4 sequence (Q16696 1-494): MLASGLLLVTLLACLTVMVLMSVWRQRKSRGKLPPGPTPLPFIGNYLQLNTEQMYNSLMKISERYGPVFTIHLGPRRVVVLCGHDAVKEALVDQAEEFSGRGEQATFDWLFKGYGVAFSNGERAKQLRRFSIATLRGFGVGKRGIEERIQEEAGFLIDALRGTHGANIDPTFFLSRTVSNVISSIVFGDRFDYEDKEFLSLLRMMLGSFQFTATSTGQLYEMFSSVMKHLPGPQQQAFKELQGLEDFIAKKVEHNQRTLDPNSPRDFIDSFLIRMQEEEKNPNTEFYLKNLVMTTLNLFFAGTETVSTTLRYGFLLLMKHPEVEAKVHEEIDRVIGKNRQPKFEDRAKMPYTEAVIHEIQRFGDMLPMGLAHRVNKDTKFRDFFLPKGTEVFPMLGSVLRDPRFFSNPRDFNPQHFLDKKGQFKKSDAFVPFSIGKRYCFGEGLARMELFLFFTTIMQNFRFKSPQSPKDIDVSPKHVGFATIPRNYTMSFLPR
Experimental: (§1) 100 pmoles human recombinant NADPH-P450 reductase contained in microsomes (BD Biosciences Gentest, USA) are incubated with 50 pmoles CYP2A13 microsomes for 15 minutes on ice. Freshly sonicated dilaurylphosphatidylcholine (DLPC, Fluka, Switzerland) is added from a stock solution (1 mg/ml in water) to give a final concentration of 0.025 mg/ml (0.5 ml final reaction volume) and the mixture is incubated on ice for 15 minutes. Potassium phosphate buffer (1 M, pH 7.4) and water are added to give a buffer concentration of 0.1M in a final volume of 0.5 ml. The test compound is prepared as a 50 mM stock solution in acetonitrile. […]
(§2) Following the 60 min incubation, the sample is chilled on ice for 10 minutes and the enzymatic reaction is stopped by extraction with 0.3 ml of the organic solvent methyl-t-butyl-ether (MTBE) that allows separating the test compound and its metabolites from the aqueous phase which contains the enzymes. 1 microliter of the MTBE fraction is analysed by GC and GC-MS to identify metabolites which are present in the enzymatic reaction, but not in the control.
(§3) For test compounds which show a decrease in umbelliferone-derived fluorescence, the incubation with the enzyme but without coumarin and analysis of metabolites is performed by GC and GC-MS as described in Example 2A. […]

human CYP2A13 [7] = molecular target: T4, human CYP2A13; details: 60 min, 0.3 mM, pH 7.4
Experimental: as §1, §2, §3

[8] = molecular target: T5, equine liver ADH (EC 1.1.1.1) (Equus caballus, UniProt P00327); assay: Incubation of octanol with alcohol dehydrogenase (ADH), metabolite by GC and GC-MS; format: in vitro ADME; details: octanol 0.1 M, 50 mU ADH, 10 mM NAD+, pH 8.5, 30 min at 25° C.
T5 construct: purchased Sigma-Aldrich, Switzerland
Experimental: Human alcohol dehydrogenase exists as a heterogeneous group of isozymes capable of oxidizing a wide variety of aliphatic and aromatic alcohols. Any isozyme of the human enzyme can be used. In this example, equine liver ADH (EC 1.1.1.1; Sigma-Aldrich, Switzerland) is used instead of the human enzyme. Octanol is incubated with ADH in a 1-ml reaction volume containing 50 mM potassium phosphate (pH 8.5) and 10 mM NAD+ (Fluka, Switzerland). Octanol is added at a concentration of 0.1 M and the metabolic reaction is initiated by addition of 50 mU of ADH and incubated for 30 min at 25° C. The tube is centrifuged to separate any debris and the supernatant extracted with MTBE for analysis by GC and GC-MS. […] The metabolite is identified by GC analysis and GC-MS as octanal.

Sequence of hTRPM8 (Q7Z2W7 whole entry): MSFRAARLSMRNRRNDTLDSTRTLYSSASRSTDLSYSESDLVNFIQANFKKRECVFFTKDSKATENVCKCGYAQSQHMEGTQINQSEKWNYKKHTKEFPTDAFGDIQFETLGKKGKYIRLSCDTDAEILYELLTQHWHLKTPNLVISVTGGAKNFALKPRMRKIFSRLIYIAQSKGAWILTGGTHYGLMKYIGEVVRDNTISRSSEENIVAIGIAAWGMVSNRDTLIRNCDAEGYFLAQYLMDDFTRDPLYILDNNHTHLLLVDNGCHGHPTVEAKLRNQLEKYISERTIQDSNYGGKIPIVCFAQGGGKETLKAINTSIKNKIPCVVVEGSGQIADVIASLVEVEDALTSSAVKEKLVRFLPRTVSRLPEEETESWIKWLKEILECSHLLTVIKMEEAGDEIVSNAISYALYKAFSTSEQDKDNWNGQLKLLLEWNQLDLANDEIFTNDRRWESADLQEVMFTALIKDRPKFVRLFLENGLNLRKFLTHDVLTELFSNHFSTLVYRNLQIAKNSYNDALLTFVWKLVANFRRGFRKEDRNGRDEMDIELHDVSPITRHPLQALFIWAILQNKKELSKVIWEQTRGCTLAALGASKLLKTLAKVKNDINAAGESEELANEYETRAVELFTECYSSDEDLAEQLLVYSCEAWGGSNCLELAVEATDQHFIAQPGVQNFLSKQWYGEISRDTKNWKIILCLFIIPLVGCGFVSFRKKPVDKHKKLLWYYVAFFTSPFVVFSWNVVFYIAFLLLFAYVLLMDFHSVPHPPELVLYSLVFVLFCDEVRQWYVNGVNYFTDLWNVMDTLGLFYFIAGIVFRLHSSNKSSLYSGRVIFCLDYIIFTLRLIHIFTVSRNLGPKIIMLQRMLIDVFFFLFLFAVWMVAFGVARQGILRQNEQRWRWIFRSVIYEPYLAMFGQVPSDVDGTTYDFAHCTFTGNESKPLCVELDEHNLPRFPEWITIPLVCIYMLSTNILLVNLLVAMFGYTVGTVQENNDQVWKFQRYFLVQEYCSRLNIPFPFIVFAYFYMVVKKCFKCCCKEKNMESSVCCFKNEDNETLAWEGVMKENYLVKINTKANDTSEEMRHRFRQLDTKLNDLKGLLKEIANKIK
T5 sequence (P00327 2-375 limits assumed): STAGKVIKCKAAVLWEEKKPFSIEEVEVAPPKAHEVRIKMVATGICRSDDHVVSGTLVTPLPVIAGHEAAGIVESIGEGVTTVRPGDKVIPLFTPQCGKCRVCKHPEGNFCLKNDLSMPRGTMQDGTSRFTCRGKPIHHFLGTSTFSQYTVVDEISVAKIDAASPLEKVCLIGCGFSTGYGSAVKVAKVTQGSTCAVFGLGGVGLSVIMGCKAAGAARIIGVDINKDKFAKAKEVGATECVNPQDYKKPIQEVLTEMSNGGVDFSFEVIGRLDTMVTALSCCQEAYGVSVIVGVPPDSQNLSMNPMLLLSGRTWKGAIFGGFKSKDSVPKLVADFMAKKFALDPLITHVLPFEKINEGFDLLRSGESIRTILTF
Sequence of CYP2E1 and Epoxide Hydrolase (EH) (P05181 whole entry): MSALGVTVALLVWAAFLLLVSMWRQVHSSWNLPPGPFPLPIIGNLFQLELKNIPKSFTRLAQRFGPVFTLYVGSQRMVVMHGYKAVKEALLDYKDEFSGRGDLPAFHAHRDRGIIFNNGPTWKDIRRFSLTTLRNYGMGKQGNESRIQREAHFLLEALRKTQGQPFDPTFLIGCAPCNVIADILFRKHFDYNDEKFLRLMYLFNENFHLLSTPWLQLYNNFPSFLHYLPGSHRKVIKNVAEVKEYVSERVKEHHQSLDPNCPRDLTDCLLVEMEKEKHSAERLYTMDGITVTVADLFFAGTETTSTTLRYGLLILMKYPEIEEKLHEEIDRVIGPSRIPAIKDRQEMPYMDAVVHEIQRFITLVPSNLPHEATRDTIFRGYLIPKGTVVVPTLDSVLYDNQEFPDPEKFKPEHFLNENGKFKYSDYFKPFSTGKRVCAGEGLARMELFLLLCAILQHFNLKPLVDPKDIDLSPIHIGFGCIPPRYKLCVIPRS

In the case of C=Cc1ccccc1 [styrene], the “Identified metabolites by GC-MS (present in the sample, not in the control)” value [1] is reported as “styrene epoxide and the corresponding diol”.

With CCCCCCCC=O [octanal] the “Activation of the rat olfactory receptor 17 (increase in intracellular calcium levels)” value [2] was “agonist”.

For CC1CCC(C(C)C)C(OC(=O)C(C)O)C1 (centres unmarked) [menthyl-lactate], the “Metabolite identified by GC and GC-MS (additional peak)” value ([3]; 10 mU CE, substrate 0.25 mM, 30 min at 25° C., no standard substrate) was “menthol”, the “Identification as substrate or modulator of human CE” value ([3]; from decrease of standard product and metabolite found) was “substrate of human CE” and the “Receptor ligand character at hTRPM8” value (hTRPM8) was “not the main receptor ligand”. The “Intracellular calcium levels in hTRPM8-expressing CHO-K1 cells” value (hTRPM8) was “no comparable increase” and the “Formation of the enzymatic reaction product of p-nitrophenylacetate compared to negative control” value [4] was “concentration-dependent decrease”.

With c1ccc(C2CO2)cc1 (centres unmarked) [styrene oxide] the “Metabolite found by GC-MS in the sample but not in the control” value [5] was “diol”.

With CN(C)c1ccccc1 [N,N-dimethylaniline] the “Identification as substrate or modulator of CYP2A13” value (human CYP2A13 [6]) was “substrate of CYP2A13”.

COCC(=O)c1ccccc1 [2-methoxyacetophenone] was tested, and the “Metabolite identified by GC and GC-MS (additional peak present in the sample, not in the control)” value (human CYP2A13 [7]) was 2-hydroxyacetophenone.

With CCCCCCCCO [octanol] the “Activation of the rat olfactory receptor 17 (increase in intracellular calcium levels)” value [2] was “not able to activate the receptor” and the “Metabolite identified by GC analysis and GC-MS” value [8] was “octanal”.

CC1CCC(C(C)C)C(O)C1 (centres unmarked) [menthol] was tested, and the “Receptor ligand character at hTRPM8” value (hTRPM8) was “preferred hTRPM8 agonist” and the “Intracellular calcium levels in hTRPM8-expressing CHO-K1 cells” value (hTRPM8) was “increase of intracellular calcium levels”.
